Measured values from US20100266716A1, “Natural Photodynamic Agents and their use” (priority 2007, published 2010).

Legend:
Format in all cases: cell-based
[1] = tested on: Salmonella choleraesuis; experiment: MBEC device biofilm photodynamic killing (Example 1); parameters: key to Killing of Salmonella cholerasuis biofilm (eradication or growth): “−” = biofilm eradication at the mentioned conditions (concentration, exposure time and Light source); “+” = biofilm growth; details: for Killing of Salmonella cholerasuis biofilm (eradication or growth): 16 Hours exposure; for effective as photodynamic agent in killing biofilm organisms: Salmonella choleraesuis and Staphylococcus aureus biofilm, summary of Table 1
Source text: (§1) Test microorganisms included Salmonella choleraesuis, Staphylococcus aureus, foodborne pathogens of humans. Test Compounds included Methylene blue, Hemoglobin (blood product), Hemin (blood product), Protoporphyrin (blood product), Annatto Extract (15% Norbixin), beet juice, Canthaxanthin (10%), Beta-carotene (1%), Purple carmine 50%, Carmine lake 60%, Black Carrot extract, Tomato lycopene (5%), sodium copper chlorophyllin, grape skin extract, paprika oleoresin, riboflavin, saffron, titanium dioxide, FD&C blue No1., turmeric oleoresin, FD&C blue No. 2, FD&C Green No. 3, FD&C Red No. 2 (Amaranth), FD&C Red No. 40, FD&C Yellow No. 5, and FD&C Yellow No. 6. Compounds were prepared as 1%, 0.1%, 0.01%, by weight, dissolved in water.
(§2) The light source was a full spectrum fluorescent light or LED light and the contact time was 1 and 16 hours. The study temperature was 37° C.
(§3) Approximately 10^6 organisms in 150 uL Cation Adjusted Mueller Hinton Broth (CAMHB) were placed in each of the wells of a 96 peg MBEC device. The lid of the 96 peg MBEC device was placed on the bottom plate containing organism. The device was placed on a shaker, set to 110 rpm, and incubated at 37° C. for 24 hours to produce biofilms.
(§4) The challenge plates were set up using a sterile 96-well microtitre plate using aseptic techniques in the following manner (one organism per plate, per light exposure time, per light source). Test solutions (200 uL) were placed into each well. The lid was transferred to the challenge plate and exposed to the various light sources for the prescribed exposure times (16 hours). Following the treatment, the pegs were transferred to the recovery media (“recovery plate”) then wrapped in tin foil and incubated at 37° C. for 18 to 24 hours. The recovery plate(s) was wrapped in tin foil, incubated at 37° C. for 24 hours and read visually and by a plate reader, set to an optical density measurement of 630 nm, to determine Minimum Biofilm Eradication Concentration (MBEC) by looking at growth or no growth.

[2] = tested on: Staphylococcus aureus; experiment: as above; parameters: key to Killing of Staph aureus biofilm (eradication or growth): “−” = biofilm eradication at the mentioned conditions (concentration, exposure time and Light source); “+” = biofilm growth; details: for Killing of Staph aureus biofilm (eradication or growth): 16 Hours exposure
Source text: as §1, §2, §3, §4

[3] = tested on: Salmonella choleraesuis; experiment: Photocatalytic food dyes Log10 counts (Example 2); details: S. choleraesuis, Control 7.28
Source text: as §1, §2, §3, §4
(§5) The test was conducted as shown in Example 1, but using Hemin (blood product), Protoporphyrin (blood product), Annatto Extract, and Turmeric. The group of tests organism also included E. Coli 0157H7.

[4] = tested on: Staphylococcus aureus; experiment: Photocatalytic food dyes Log10 counts (Example 2); details: Staph. aureus
Source text: as §1, §2, §3, §4, §5

[5] = tested on: E. coli 0157H7; experiment: Photocatalytic food dyes Log10 counts (Example 2)
Source text: as §1, §2, §3, §4, §5

[6] = tested on: Pseudomonas syringae HB9; experiment: Photodynamic activity on plant bacterial pathogen (Example 4)
Experimental: Test microorganism included Pseudomonas syringae, a food spoilage microorganism and plant pathogen. Test Compounds included Hemin (blood product), Annatto Extract, and Turmeric. Compounds were prepared as 1%, 0.1%, 0.01%, by weight, in 30% Mueller Hinton Broth in phosphate buffered saline. The light source was a broad spectrum fluorescent light or an LED light and the contact time was 16 hours. The study temperature was 28° C.
Approximately 10^6 organisms in 150 uL Cationic
Adjusted Mueller Hinton Broth were placed in each of the wells of a 96 peg MBEC device. The lid of the 96 peg MBEC device was placed on the bottom plate containing organism. The device was placed on a shaker, set to 110 rpm, and incubated at 28° C. for 24 hours.
The challenge plates were set up using a sterile 96-well microtitre plate using aseptic techniques in the following manner (one organism per plate, per light exposure time, per light source). Test solutions (200 uL) were placed into each well. The lid was transferred to the challenge plate and exposed to the various light sources for the prescribed exposure times (16 hours). Following the treatment, the pegs were transferred to the recovery media (“recovery plate”) then wrapped in tin foil and incubated at 28° C. for 18 to 24 hours.
The recovery plate(s) was wrapped in tin foil, incubated at 28° C. for 24 hours and read visually and by a plate reader, set to an optical density measurement of 630 nm, to determine MBEC growth.

[7] = Fluorescent Light 16 hours, 0.01%
[8] = Fluorescent Light 16 hours, 0.1%
[9] = Fluorescent Light 16 hours, 0.01%, Control 6.48
[10] = Fluorescent Light 16 hours, 0.1%, Control 6.48
[11] = Fluorescent Light 16 hours, 1%, Control 6.48
[12] = LED Light 16 hours, 0.01%, Control 6.95
[13] = LED Light 16 hours, 0.1%, Control 6.95
[14] = LED Light 16 hours, 1%, Control 6.95
[15] = Fluorescent Light 16 hours, 0.01%, Control 6.51
[16] = Fluorescent Light 16 hours, 0.1%, Control 6.51
[17] = Fluorescent Light 16 hours, 1%, Control 6.51
[18] = LED Light 16 hours, 0.01%, Control 6.36
[19] = LED Light 16 hours, 0.1%, Control 6.36
[20] = LED Light 16 hours, 1%, Control 6.36

| Compound | Killing of Salmonella cholerasuis biofilm (eradication or growth) ([1]; Fluorescent Light, 0.01%) | Killing of Salmonella cholerasuis biofilm (eradication or growth) ([1]; Fluorescent Light, 0.1%) | Killing of Salmonella cholerasuis biofilm (eradication or growth) ([1]; Fluorescent Light, 1%) | Killing of Salmonella cholerasuis biofilm (eradication or growth) ([1]; LED Light, 0.01%) | Killing of Salmonella cholerasuis biofilm (eradication or growth) ([1]; LED Light, 0.1%) | Killing of Salmonella cholerasuis biofilm (eradication or growth) ([1]; LED Light, 1%) | Killing of Staph aureus biofilm (eradication or growth) ([2]; Fluorescent Light, 0.01%) | Killing of Staph aureus biofilm (eradication or growth) ([2]; Fluorescent Light, 0.1%) | Killing of Staph aureus biofilm (eradication or growth) ([2]; Fluorescent Light, 1%) | Killing of Staph aureus biofilm (eradication or growth) ([2]; LED Light, 0.01%) | Killing of Staph aureus biofilm (eradication or growth) ([2]; LED Light, 0.1%) | Killing of Staph aureus biofilm (eradication or growth) ([2]; LED Light, 1%) | Average Log10 counts [3, 7] [Log10] | Average Log10 counts [3, 8] [Log10] | Average Log10 counts ([3]; Fluorescent Light 16 hours, 1%) [Log10] | Average Log10 counts ([3]; LED Light 16 hours, 0.01%) [Log10] | Average Log10 counts ([3]; LED Light 16 hours, 0.1%) [Log10] | Average Log10 counts ([3]; LED Light 16 hours, 1%) [Log10] | Average Log10 counts [4, 9] [Log10] | Average Log10 counts [4, 10] [Log10] | also measured |
| --- | --- | --- | --- | --- | --- | --- | --- | --- | --- | --- | --- | --- | --- | --- | --- | --- | --- | --- | --- | --- | --- |
| CN(C)c1ccc2nc3ccc(=[N+](C)C)cc-3sc2c1 [Methylene blue, reference compound] | − | − | − | − | − | − | − | − | − | − | − | − | 0.00 | 0.00 | 0.00 | 2.27 | 0.00 | 3.20 | 3.20 | 0.00 | Average Log10 counts [4, 11]: 0.00 Log10; Average Log10 counts [4, 12]: 5.71 Log10; Average Log10 counts [4, 13]: 5.40 Log10; Average Log10 counts [4, 14]: 4.84 Log10; Average Log10 counts [5, 15]: 3.41 Log10; Average Log10 counts [5, 16]: 0.79 Log10; Average Log10 counts [5, 17]: 0.35 Log10; Average Log10 counts [5, 18]: 1.77 Log10; Average Log10 counts [5, 19]: 0.00 Log10; Average Log10 counts [5, 20]: 0.00 Log10 |
| Hemin | − | − | − | + | + | − | + | + | + | + | + | + | 2.79 | 3.85 | 4.55 | 4.02 | 4.48 | 4.74 | 2.21 | 0.79 | effective as photodynamic agent in killing biofilm organisms [1]: Effective; Average Log10 growth reductions [6, 7]: 1.07 log10 CFU; Average Log10 growth reductions [6, 8]: 0.92 log10 CFU; Average Log10 growth reductions ([6]; Fluorescent Light 16 hours, 1%): 1.51 log10 CFU; Average Log10 growth reductions ([6]; LED Light 16 hours, 0.01%): 1.48 log10 CFU; Average Log10 growth reductions ([6]; LED Light 16 hours, 0.1%): 1.32 log10 CFU; Average Log10 growth reductions ([6]; LED Light 16 hours, 1%): 3.97 log10 CFU; Average Log10 counts [4, 11]: 0.00 Log10; Average Log10 counts [4, 12]: 5.52 Log10; Average Log10 counts [4, 13]: 3.75 Log10; Average Log10 counts [4, 14]: 1.51 Log10; Average Log10 counts [5, 15]: 3.17 Log10; Average Log10 counts [5, 16]: 3.79 Log10; Average Log10 counts [5, 17]: 3.06 Log10; Average Log10 counts [5, 18]: 4.18 Log10; Average Log10 counts [5, 19]: 4.22 Log10; Average Log10 counts [5, 20]: 0.00 Log10 |
| Protoporphyrin | − | − | − | + | + | − | + | + | + | + | + | + | 2.10 | 2.33 | 3.32 | 3.40 | 3.67 | 2.92 | 0.00 | 0.00 | concentration at which useful against Salmonella ([1]; LED light): greater than 1%; effective as photodynamic agent in killing biofilm organisms [1]: Effective; concentration at which useful against Salmonella ([1]; fluorescent light): greater than 0.01%; concentration at which useful against Staph A ([2]; fluorescent light): greater than 0.1%; Average Log10 counts [4, 11]: 0.00 Log10; Average Log10 counts [4, 12]: 1.29 Log10; Average Log10 counts [4, 13]: 0.50 Log10; Average Log10 counts [4, 14]: 3.10 Log10; Average Log10 counts [5, 15]: 0.44 Log10; Average Log10 counts [5, 16]: 0.57 Log10; Average Log10 counts [5, 17]: 0.00 Log10; Average Log10 counts [5, 18]: 4.04 Log10; Average Log10 counts [5, 19]: 3.48 Log10; Average Log10 counts [5, 20]: 3.60 Log10 |
| sodium copper chlorophyllin | + | + | + | + | + | + | + | + | + | + | + | + |  |  |  |  |  |  |  |  |  |
